Experimental data taken from patent US12590062B2, “PD-1/PD-L1 inhibitors” (Gilead Sciences, Inc., priority 2017, dated 2026).

Columns and labels:
PD-1/PD-L1 interaction = molecular target: T1, PD-1/PD-L1 interaction (Homo sapiens, UniProt Q9NZQ7); assay: PD-1/PD-L1 NFAT reporter co-culture assay; assay type: cell-based; settings: Jurkat PD-1 NFAT-luciferase cells co-cultured with aAPC-PD-L1 CHO cells, 6 hrs at 37° C.; read-out: EC50 NFAT Luciferase
T1 construct: expressed in transfected cells; host or cells: CHO cells (aAPC-PD-L1) co-cultured with Jurkat cells overexpressing PD-1 and an NFAT-luciferase reporter
T1 sequence (Q9NZQ7 19-290): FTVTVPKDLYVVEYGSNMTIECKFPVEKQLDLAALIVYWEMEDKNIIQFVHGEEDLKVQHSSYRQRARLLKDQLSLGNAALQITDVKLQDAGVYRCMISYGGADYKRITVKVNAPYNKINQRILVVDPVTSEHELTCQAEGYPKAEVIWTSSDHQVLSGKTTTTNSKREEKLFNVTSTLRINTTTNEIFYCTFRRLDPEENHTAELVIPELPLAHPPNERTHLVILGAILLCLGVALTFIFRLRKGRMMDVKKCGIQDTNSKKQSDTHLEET
In short: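 Jurkat cells overexpressing PD-1 with NFAT-luciferase mixed with compounds and plated onto CHO aAPCs expressing anti-CD3 and PD-L1, RPMI with 2% FBS. Co-culture 6 h at 37 °C; luminescence read with ONE-Glo. EC50 from four-parameter fit.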

PD-L1 = molecular target: T2, PD-L1 (Homo sapiens, UniProt Q9NZQ7); assay: PD-L1/PD-L1 dimerization biochemical protein-protein interaction assay (ALPHA); assay type: binding; settings: compound-induced PD-L1 dimerization, head prints '1 nM' (0.5 nM His-tagged PD-L1 and 0.5 nM FLAG-tagged PD-L1), read-out: AC50 PDL1 Dimer Alpha 1 nM
T2 construct: determine if they can specifically dimerize the extracellular domains of PD-L1
T2 sequence (Q9NZQ7 19-238 limits assumed): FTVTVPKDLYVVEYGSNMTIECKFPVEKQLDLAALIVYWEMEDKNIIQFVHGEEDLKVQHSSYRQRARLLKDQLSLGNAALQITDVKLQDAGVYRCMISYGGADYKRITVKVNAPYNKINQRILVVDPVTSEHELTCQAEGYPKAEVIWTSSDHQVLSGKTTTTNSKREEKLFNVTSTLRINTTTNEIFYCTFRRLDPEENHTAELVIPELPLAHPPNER
T2 sequence (Q9NZQ7 19-238 limits assumed): as above
Procedure: PD-L1/PD-L1 Dimerization Biochemical Protein-Protein Interaction Assay:
Compounds were tested in biochemical protein-protein interaction assays to determine if they can specifically dimerize the extracellular domains of PD-L1. Dimerization of the proteins (His-tagged PD-L1 and FLAG-tagged PD-L1) is measured using a bead based Amplified Luminescent Proximity Homogeneous Assay (ALPHA) platform. […] Assays are performed in 25 mM Hepes (pH 7.4), 150 mM NaCl, 3.4 mM EDTA, 0.005% Tween 20, and 0.01% BSA. Final protein concentration in the assays were 0.5 nM (His tagged PD-L) and 0.5 nM (FLAG tagged PD-L1). After an assay reaction time of 2 hours at 25° C., 20 μg/mL (final assay concentration) ALPHA assay acceptor beads (anti-His coated) were added and incubated for 60 minutes at 25° C. Binding was measured following a final 60 minute incubation with 40 μg/mL (final assay concentration) ALPHA assay donor beads (anti-FLAG coated). AC50 values were calculated from the fit of the dose-response curves to a four-parameter equation (Table 3).

PD-1/PD-L1 = PD-1/PD-L1 (Homo sapiens, UniProt Q9NZQ7); assay: PD-1/PD-L1 biochemical protein-protein interaction assay (ALPHA); assay type: binding; settings: 0.3 nM His tagged PD-L1, 2.5 nM biotinylated Fc-PD-1, 60 minutes at 25° C., read-out: IC50 PD-L1-PD-1 Alpha IC50-mono PD-L1-fcP-D1
PD-1/PD-L1, sequence (Q9NZQ7 19-238 limits assumed): as above
In short: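 Final concentrations 0.3 nM His-tagged PD-L1 and 2.5 nM biotinylated Fc-PD-1 (extracellular domains) were reacted with compound for 60 min at 25° C in pH 7.4 Hepes/NaCl/EDTA/Tween/BSA buffer. Binding was then detected by ALPHA beads, and IC50 values were taken from four-parameter curve fitting.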

SMILES	EC50 (PD-1/PD-L1 interaction)	AC50 (PD-L1)	IC50 (PD-1/PD-L1)
Cc1c(OCc2cc(OCc3cncc(C#N)c3)c(CN[C@@](C)(CO)C(=O)O)cc2Cl)cccc1-c1cccc(-c2ccc(OCCN[C@@](C)(CO)C(=O)O)cc2)c1C [Example 388, (S)-2-((4-(((4″-(2-(((S)-2-carboxy-1-hydroxypropan-2-yl)amino)ethoxy)-2,2′-dimethyl-[1,1′:3′,1″-terphenyl]-3-yl)oxy)methyl)-5-chloro-2-((5-cyanopyridin-3-yl)methoxy)benzyl)amino)-3-hydroxy-2-methylpropanoic acid]	225 nM	≥ 10000 nM	–
Cc1c(COc2cc(OCc3cncc(C#N)c3)c(CNCCCO)cc2Cl)cccc1-c1cccc(COc2cc(OCc3cncc(C#N)c3)c(CNCCCO)cc2Cl)c1C [Example 73, 5,5′-((((((2,2′-dimethyl-[1,1′-biphenyl]-3,3′-diyl)bis(methylene))bis(oxy))bis(4-chloro-6-(((3-hydroxypropyl)amino)methyl)-3,1-phenylene))bis(oxy))bis(methylene))dinicotinonitrile]	2620 nM	–	56.1 nM
C=CCOc1nc(OCc2cccc(-c3cccc(COc4nc(OCC=C)c(CNC[C@@H](O)CC(=O)O)cc4Br)c3C)c2C)c(Br)cc1CNC[C@@H](O)CC(=O)O [Example 151, (3S,3′S)-4,4′-((((((2,2′-dimethyl-[1,1′-biphenyl]-3,3′-diyl)bis(methylene))bis(oxy))bis(2-(allyloxy)-5-bromopyridine-6,3-diyl))bis(methylene))bis(azanediyl))bis(3-hydroxybutanoic acid)]	≥ 50000 nM	–	2.2 nM
COc1nc(O[C@@H]2c3cccc(-c4cccc5c4C[C@@H](F)[C@@H]5Oc4nc(OC)c(CNC[C@@H](O)CC(=O)O)cc4Cl)c3C[C@H]2F)c(Cl)cc1CNC[C@@H](O)CC(=O)O [Example 639, (3S,3′S)-4,4′-((((((1R,1′R,2R,2′R)-2,2′-difluoro-2,2′,3,3′-tetrahydro-1H,1′H-[4,4′-biindene]-1,1′-diyl)bis(oxy))bis(5-chloro-2-methoxypyridine-6,3-diyl))bis(methylene))bis(azanediyl))bis(3-hydroxybutanoic acid)]	942 nM	–	1.85 nM
Cc1c(COc2ccc(CNCCO)cc2C(F)(F)F)cccc1-c1cccc(COc2ccc(CNCCO)cc2C(F)(F)F)c1C [Example 223, 2,2′-((((((2,2′-dimethyl-[1,1′-biphenyl]-3,3′-diyl)bis(methylene))bis(oxy))bis(3-(trifluoromethyl)-4,1-phenylene))bis(methylene))bis(azanediyl))bis(ethan-1-ol)]	≥ 50000 nM	–	34.6 nM
O=C(O)C[C@H](O)CNCc1ccc(C(=O)N2CCc3c(-c4cccc5c4CCN5C(=O)c4ccc(CNC[C@@H](O)CC(=O)O)cc4)cccc32)cc1 [Example 181, (3S,3′S)-4,4′-(((([4,4′-biindoline]-1,1′-dicarbonyl)bis(4,1-phenylene))bis(methylene))bis(azanediyl))bis(3-hydroxybutanoic acid)]	30900 nM	–	3.3 nM
N#Cc1cncc(COc2cc(C(=O)N3CCc4c(-c5cccc6c5CCN6C(=O)c5ccc(CNC[C@@H](O)CC(=O)O)c(OCc6cncc(C#N)c6)c5)cccc43)ccc2CNC[C@@H](O)CC(=O)O)c1 [Example 267, (3S,3′S)-4,4′-(((([4,4′-biindoline]-1,1′-dicarbonyl)bis(2-((5-cyanopyridin-3-yl)methoxy)-4,1-phenylene))bis(methylene))bis(azanediyl))bis(3-hydroxybutanoic acid)]	8540 nM	–	1.1 nM
Cc1c(COc2cc(OCc3cc(C#N)cc(C#N)c3)c(CNC[C@@H](O)CC(=O)O)cc2Cl)cccc1-c1cccc(COc2cc(OCc3cc(C#N)cc(C#N)c3)c(CNC[C@@H](O)CC(=O)O)cc2Cl)c1C [Example 220, (3S,3′S)-4,4′-((((((2,2′-dimethyl-[1,1′-biphenyl]-3,3′-diyl)bis(methylene))bis(oxy))bis(5-chloro-2-((3,5-dicyanobenzyl)oxy)-4,1-phenylene))bis(methylene))bis(azanediyl))bis(3-hydroxybutanoic acid)]	177 nM	–	2 nM
COC(=O)COc1nc(OCc2cccc(-c3cccc(COc4nc(OCC(=O)OC)c(CNC[C@@H](O)CC(=O)O)cc4Br)c3C)c2C)c(Br)cc1CNC[C@@H](O)CC(=O)O [Example 150, (3S,3′S)-4,4′-((((((2,2′-dimethyl-[1,1′-biphenyl]-3,3′-diyl)bis(methylene))bis(oxy))bis(5-bromo-2-(2-methoxy-2-oxoethoxy)pyridine-6,3-diyl))bis(methylene))bis(azanediyl))bis(3-hydroxybutanoic acid)]	≥ 50000 nM	–	0.5 nM

The remaining lines, values ahead:

EC50 (PD-1/PD-L1 interaction)	AC50 (PD-L1)	IC50 (PD-1/PD-L1)	SMILES
2120 nM	–	0.9 nM	COc1nc(/C=C/c2cccc(-c3cccc(/C=C/c4ccc(CNC[C@@H](O)CC(=O)O)c(OC)n4)c3C)c2C)ccc1CNC[C@@H](O)CC(=O)O [Example 238, (3S,3′S)-4,4′-(((((1E,1′E)-(2,2′-dimethyl-[1,1′-biphenyl]-3,3′-diyl)bis(ethene-2,1-diyl))bis(2-methoxypyridine-6,3-diyl))bis(methylene))bis(azanediyl))bis(3-hydroxybutanoic acid)]
689 nM	–	20.8 nM	Cc1c(COc2cc(OCc3cncc(C#N)c3)c(CNCCO)cc2Br)cccc1-c1cccc(COc2cc(OCc3cncc(C#N)c3)c(CNCCO)cc2Br)c1C [Example 254, 5,5′-((((((2,2′-dimethyl-[1,1′-biphenyl]-3,3′-diyl)bis(methylene))bis(oxy))bis(4-bromo-6-(((2-hydroxyethyl)amino)methyl)-3,1-phenylene))bis(oxy))bis(methylene))dinicotinonitrile]
1110 nM	–	31.2 nM	COc1nc(OCc2cccc(-c3cccc(COc4cc(OCc5cncc(C#N)c5)c(CNCCO)cc4Cl)c3C)c2C)ccc1CNCCO [Example 201, 5-((4-Chloro-2-(((2-hydroxyethyl)amino)methyl)-5-((3′-(((5-(((2-hydroxyethyl)amino)methyl)-6-methoxypyridin-2-yl)oxy)methyl)-2,2′-dimethyl-[1,1′-biphenyl]-3-yl)methoxy)phenoxy)methyl)nicotinonitrile]
322 nM	–	0.4 nM	Cc1c(COc2cc(OCc3cncc(C#N)c3)c(CNC[C@@H](O)CC(=O)O)cc2Br)cccc1-c1cccc(COc2cc(OCc3cncc(C#N)c3)c(CNC[C@@H](O)CC(=O)O)cc2Br)c1C [Example 33, (3S,3′S)-4,4′-((((((2,2′-dimethyl-[1,1′-biphenyl]-3,3′-diyl)bis(methylene))bis(oxy))bis(5-bromo-2-((5-cyanopyridin-3-yl)methoxy)-4,1-phenylene))bis(methylene))bis(azanediyl))bis(3-hydroxybutanoic acid)]
653 nM	–	11.1 nM	CCNCc1cc(Cl)c(OCc2cccc(-c3cccc(COc4cc(OCc5cncc(C#N)c5)c(CNCC)cc4Cl)c3C)c2C)cc1OCc1cncc(C#N)c1 [Example 12, 5,5′-((((((2,2′-dimethyl-[1,1′-biphenyl]-3,3′-diyl)bis(methylene))bis(oxy))bis(4-chloro-6-((ethylamino)methyl)-3,1-phenylene))bis(oxy))bis(methylene))dinicotinonitrile]
304 nM	–	4.6 nM	COc1ccc(COc2nc(OCc3cccc(-c4cccc(COc5nc(OCc6ccc(OC)nc6)c(CNC[C@@H](O)CC(=O)O)cc5Br)c4C)c3C)c(Br)cc2CNC[C@@H](O)CC(=O)O)cn1 [Example 253, (3S,3′S)-4,4′-((((((2,2′-dimethyl-[1,1′-biphenyl]-3,3′-diyl)bis(methylene))bis(oxy))bis(5-bromo-2-((6-methoxypyridin-3-yl)methoxy)pyridine-6,3-diyl))bis(methylene))bis(azanediyl))bis(3-hydroxybutanoic acid)]
48 nM	–	0.2 nM	COc1nc(O[C@H]2CCc3c(-c4cccc5c4CC[C@@H]5Oc4nc(OC)c(CNC[C@H](O)CC(=O)O)cc4Br)cccc32)c(Br)cc1CNC[C@H](O)CC(=O)O [Example 3, (3R,3′R)-4,4′-((((((1S,1′S)-2,2′,3,3′-tetrahydro-1H,1′H-[4,4′-biindene]-1,1′-diyl)bis(oxy))bis(5-bromo-2-methoxypyridine-6,3-diyl))bis(methylene))bis(azanediyl))bis(3-hydroxybutanoic acid)]
